Reference: patent US7410971B2, “1,2-di(cyclic)substituted benzene compounds” (Eisai R&D Management Co., Ltd., priority 2003, dated 2008)

Experiments:
[1] = system: human peripheral blood neutrophils; assay: Human peripheral blood neutrophil adhesion system (adhesion to immobilized HUVEC, PMA-stimulated); type: cell-based; conditions: concentration inhibiting by 50% the PMA-stimulated increase in number of adhered BCECF-AM labeled neutrophils on HUVEC immobilized plate
Description: Evaluation of Compounds in Human Peripheral Blood Neutrophil Adhesion System
<Preparation of Human Peripheral Blood Neutrophils>
To a plastic centrifugation tube containing 100 units of heparin sodium (Shimizu Pharmaceutical) was added 25 ml of fresh blood sampled from a healthy human. After adding and mixing therewith 8 ml of physiological saline (Otsuka Pharmaceutical) containing 6% Dextran (Nacalai), the mixture was allowed to stand room temperature for 45 minutes for sedimentation of the erythrocytes. The resultant supernatant was transferred to another plastic centrifugation tube and combined with an equivalent volume of phosphate-buffered saline (hereinafter abbreviated as PBS; Sigma), and then centrifuged at 1600 rpm for 7 minutes at room temperature. The obtained hematocyte fraction was suspended in 4 ml of PBS, and the suspension was superposed on 4 ml of Ficoll-Paque™ PLUS (Amersham Biosciences). The resultant bilayer liquid was centrifuged at 2000 rpm for 30 minutes at room temperature, after which the supernatant was removed and the precipitate was suspended in 10 ml of PBS and centrifuged at 1200 rpm for 7 minutes, and the supernatant was removed. The resulting precipitate was suspended in 0.5 ml of PBS again, and then 10 ml of distilled water (Otsuka Pharmaceutical) was added, 0.5 ml of an aqueous solution containing 3 M NaCl was immediately added to restore isotonicity, the mixture was centrifuged at 1200 rpm for 7 minutes, and the obtained precipitate was suspended in PBS containing 1 mg/ml bovine serum albumin (hereinafter abbreviated as BSA; Sigma) again and stored in ice until being used for the experiment.
<Fluorescent Labeling of Human Peripheral Blood Neutrophils>
The obtained neutrophils were suspended in PBS containing 1 mg/ml BSA at 2×10^7 cells/ml. BCECF-AM (Dojin) was added to a final concentration of 5 μM, and the mixture was incubated at 37° C. for 45 minutes. It was then rinsed twice with PBS containing 1 mg/ml BSA by centrifugation, suspended again in PBS containing 1 mg/ml BSA at 5×10^7 cells/ml, and stored in ice until use.
<Preparation of HUVEC Immobilized Plate>
Human umbilical vein endothelial cells (hereinafter abbreviated as HUVEC) were suspended in MCDB131 medium (Chlorella Industries) containing 10% fetal calf serum and 30 μg/ml endothelial cell growth supplement (Becton Dickinson Bioscience). The suspension was added at 7.5×10^3 cells/well to a 96-well plate (Iwaki) immobilized with type I collagen, and cultured for 3 days in a CO2 incubator (Hirasawa). Upon confirming confluency of the cells, the supernatant was discarded, the plate was rinsed twice with PBS, and then PBS containing 0.1% glutaraldehyde (Kanto Kagaku) was added at 100 μl/well and the HUVECs were immobilized for 5 minutes. The supernatant was discarded and the plate was washed twice with PBS, and then PBS was added at 100 μl/well and the mixture was stored at 4° C. until use.
To 6.5 ml of RPMI-1640 medium (Sigma) containing 1 mg/ml of BSA were added 0.5 ml of a suspension of BCECF-AM labeled neutrophils at 5×10^7/ml stored in ice, which was mixed, and the mixture was added at 80 μl/well to a HUVEC immobilized plate. […] The supernatant was removed from the plate, which was then washed several times with RPMI-1640 at 100 μl/well, and then PBS containing 0.1% NP-40 (Calbiochem) was added thereto at 100 μl/well and the fluorescent intensity was measured with an ARVO™SX 1420 multi label counter (Wallac) to determine the number of adhered cells. […]

DSS-induced colitis = DSS-induced colitis model; type: in vivo, Balb/c mice; conditions: 30 mg/kg orally once a day for 5-7 successive days; 1-3% DSS in water for 5-7 days
Source text: Evaluation of Compounds in DSS-Induced Colitis Model
A 1-3% solution of dextran sulfate sodium (hereinafter abbreviated as DSS; ICN) in purified water (Otsuka Pharmaceutical) was fed freely to 6- to 7-week-old male Balb/c mice (Charles River Japan) for 5-7 days to induce colitis. Disease Activity Index (hereinafter abbreviated as DAI) scored based on fecal hardness, blood content in feces and body weight change, the number of neutrophils infiltrating the colon and the length of the colon were used as indexes to evaluate compounds. Each compound was suspended or dissolved in an aqueous solution containing 0.5% methyl cellulose (Wako), and orally administered at 30 mg/kg once a day, for 5-7 successive days.

For CCCCN1CCN(c2cc(C#N)ccc2[C@H]2CC[C@H](C(C)(C)C)CC2)CC1.Cl [Example 13, trans-4-(4-t-Butylcyclohexyl)-3-(4-butylpiperazin-1-yl)benzonitrile hydrochloride], the IC50 [1] was 53.9 µM and the “improvement in comparison with the DSS control group (DAI, number of neutrophils infiltrating the colon, length of the colon)” value (DSS-induced colitis) was “particularly good improvement”.

For CCCCN1CCN(c2cc(C#N)ccc2[C@H]2CC[C@@H](C(C)(C)C)CC2)CC1.Cl [Example 12, cis-4-(4-t-Butylcyclohexyl)-3-(4-butylpiperazine-1-yl)benzonitrile hydrochloride], the IC50 [1] was 18.3 µM and the “improvement in comparison with the DSS control group (DAI, number of neutrophils infiltrating the colon, length of the colon)” value (DSS-induced colitis) was “particularly good improvement”.
